Data from PubChem BioAssay AID248 (DTP/NCI, 2004).
Where “and” joins values, the source holds several entries; their conditions need not be identical. Identical values can stand only once. Toxic doses and inconclusive results are not listed. Rule as the data show it: active = T/C of 150% or more; inactive = T/C below 125%.

System: L1210 leukemia ip in BDF1 mice, survival T/C
Assay: NCI In Vivo Anticancer Drug Screen. Data for tumor model L1210 Leukemia (intraperitoneal) in B6D2F1 (BDF1) mice
Settings: endpoint: mean survival time, higher = longer survival
In short: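 Survival endpoint. Drug-treated group vs vehicle group, expressed as T divided by C. Tumor passaged by transplantation.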

[1] = dose: 100.0 mg/kg/injection, schedule: Q04DX003 (ip), vehicle: Klucel (hydroxypropylcellulose) (HPC)
[2] = dose: 200.0 mg/kg/injection, schedule: Q04DX003 (ip), vehicle: Klucel (hydroxypropylcellulose) (HPC)

Measured: T/C

COc1c(Cl)cc(Cl)cc1Cl
inactive: dose: 100.0 mg/kg/injection, schedule: Q01DX009 (ip), vehicle: saline sonified 96 % of control | [1] 101 % of control | dose: 200.0 mg/kg/injection, schedule: Q01DX009 (ip), vehicle: saline sonified 107 % of control | [2] 98 % of control | dose: 400.0 mg/kg/injection, schedule: Q01DX009 (ip), vehicle: saline sonified 97 % of control | dose: 400.0 mg/kg/injection, schedule: Q04DX003 (ip), vehicle: Klucel (hydroxypropylcellulose) (HPC) 104 % of control

COc1ccccc1N1C(=O)C2C(C1=O)C1(Cl)C(Cl)=C(Cl)C2(Cl)C1(Cl)Cl (stereo not drawn)
inactive: dose: 50.0 mg/kg/injection, schedule: Q01DX009 (ip), vehicle: Klucel (hydroxypropylcellulose) (HPC) 101 % of control | dose: 100.0 mg/kg/injection, schedule: Q01DX009 (ip), vehicle: Klucel (hydroxypropylcellulose) (HPC) 95 % of control | [1] 103 % of control | dose: 200.0 mg/kg/injection, schedule: Q01DX009 (ip), vehicle: Klucel (hydroxypropylcellulose) (HPC) 101 % of control and 92 % of control | [2] 109 % of control

CCN1CCC2C[N+](C)([O-])CCN2C1=O (stereo not drawn)
inactive: dose: 100.0 mg/kg/injection, schedule: Q04DX003 (ip), vehicle: saline with Tween-80 93 % of control | dose: 200.0 mg/kg/injection, schedule: Q04DX003 (ip), vehicle: saline with Tween-80 95 % of control | dose: 400.0 mg/kg/injection, schedule: Q04DX003 (ip), vehicle: saline with Tween-80 98 % of control

O=C(NO)C(=O)NCc1ccccc1
inactive: dose: 100.0 mg/kg/injection, schedule: Q01DX001 (ip), vehicle: carboxymethylcellulose (CMC) 90 % of control | dose: 200.0 mg/kg/injection, schedule: Q01DX001 (ip), vehicle: carboxymethylcellulose (CMC) 96 % of control | dose: 400.0 mg/kg/injection, schedule: Q01DX001 (ip), vehicle: carboxymethylcellulose (CMC) 96 % of control

OCC1(CO)CCC1(CO)CO
inactive: dose: 75.0 mg/kg/injection, schedule: Q01DX001 (ip), vehicle: saline 106 % of control | dose: 75.0 mg/kg/injection, schedule: Q01DX009 (ip), vehicle: saline 105 % of control | dose: 150.0 mg/kg/injection, schedule: Q01DX001 (ip), vehicle: saline 102 % of control | dose: 150.0 mg/kg/injection, schedule: Q01DX009 (ip), vehicle: saline 105 % of control | dose: 300.0 mg/kg/injection, schedule: Q01DX001 (ip), vehicle: saline 98 % of control | dose: 300.0 mg/kg/injection, schedule: Q01DX009 (ip), vehicle: saline 97 % of control
